In patent US20240024515A1, “COMBINATION TREATMENT” (priority 2022, published 2024):
Like-named read-outs stand apart in the source and are kept apart here.

How the values were obtained:
CFTR [1] = format: cell-based, human; settings: no LV
Experimental: To analyse the functionality of rSIV.F/HN-CFTR-expressed channels, CFTR-mediated chloride current was measured in an Ussing chamber using rSIV.F/HN-CFTR (vGM058) transduced ALI cultures. First, sodium channels (ENaC) were blocked using amiloride, followed by stimulation of CFTR using forskolin and the change in short circuit current (Δlsc) was calculated (both peak and plateau values). In some experiments, ivacaftor, a small molecule CFTR potentiator which increases channel open probability, was added for additional stimulation of CFTR current. Finally, the chloride current was blocked with CFTR-Inhibitor 172 (FIG. 3D).
To compare the functionality of vGM058 and vGM244, CFTR-mediated chloride current was measured in an Ussing chamber using class II ALI cultures transduced with both vGM058 and vGM244.
To analyse the functionality of rSIV.F/HN-CFTR-expressed channels, CFTR-mediated chloride current was measured in an Ussing chamber using rSIV.F/HN-CFTR (vGM244) transduced class II ALI cultures (Table 3).

CFTR [2] = molecular target: CFTR (Homo sapiens, UniProt P13569); format: cell-based; settings: no LV
[3] = Table 1, Class II F508del/F508del ALI, vGM058 study
[4] = Table 3, Class II F508del/F508del ALI, vGM244 study
[5] = Table 2, Class I CFTR KO ALI, vGM058 study
[6] = Table 4, Class I CFTR KO ALI, vGM244 study

Chain of CFTR (Homo sapiens, UniProt P13569) (P13569 whole entry): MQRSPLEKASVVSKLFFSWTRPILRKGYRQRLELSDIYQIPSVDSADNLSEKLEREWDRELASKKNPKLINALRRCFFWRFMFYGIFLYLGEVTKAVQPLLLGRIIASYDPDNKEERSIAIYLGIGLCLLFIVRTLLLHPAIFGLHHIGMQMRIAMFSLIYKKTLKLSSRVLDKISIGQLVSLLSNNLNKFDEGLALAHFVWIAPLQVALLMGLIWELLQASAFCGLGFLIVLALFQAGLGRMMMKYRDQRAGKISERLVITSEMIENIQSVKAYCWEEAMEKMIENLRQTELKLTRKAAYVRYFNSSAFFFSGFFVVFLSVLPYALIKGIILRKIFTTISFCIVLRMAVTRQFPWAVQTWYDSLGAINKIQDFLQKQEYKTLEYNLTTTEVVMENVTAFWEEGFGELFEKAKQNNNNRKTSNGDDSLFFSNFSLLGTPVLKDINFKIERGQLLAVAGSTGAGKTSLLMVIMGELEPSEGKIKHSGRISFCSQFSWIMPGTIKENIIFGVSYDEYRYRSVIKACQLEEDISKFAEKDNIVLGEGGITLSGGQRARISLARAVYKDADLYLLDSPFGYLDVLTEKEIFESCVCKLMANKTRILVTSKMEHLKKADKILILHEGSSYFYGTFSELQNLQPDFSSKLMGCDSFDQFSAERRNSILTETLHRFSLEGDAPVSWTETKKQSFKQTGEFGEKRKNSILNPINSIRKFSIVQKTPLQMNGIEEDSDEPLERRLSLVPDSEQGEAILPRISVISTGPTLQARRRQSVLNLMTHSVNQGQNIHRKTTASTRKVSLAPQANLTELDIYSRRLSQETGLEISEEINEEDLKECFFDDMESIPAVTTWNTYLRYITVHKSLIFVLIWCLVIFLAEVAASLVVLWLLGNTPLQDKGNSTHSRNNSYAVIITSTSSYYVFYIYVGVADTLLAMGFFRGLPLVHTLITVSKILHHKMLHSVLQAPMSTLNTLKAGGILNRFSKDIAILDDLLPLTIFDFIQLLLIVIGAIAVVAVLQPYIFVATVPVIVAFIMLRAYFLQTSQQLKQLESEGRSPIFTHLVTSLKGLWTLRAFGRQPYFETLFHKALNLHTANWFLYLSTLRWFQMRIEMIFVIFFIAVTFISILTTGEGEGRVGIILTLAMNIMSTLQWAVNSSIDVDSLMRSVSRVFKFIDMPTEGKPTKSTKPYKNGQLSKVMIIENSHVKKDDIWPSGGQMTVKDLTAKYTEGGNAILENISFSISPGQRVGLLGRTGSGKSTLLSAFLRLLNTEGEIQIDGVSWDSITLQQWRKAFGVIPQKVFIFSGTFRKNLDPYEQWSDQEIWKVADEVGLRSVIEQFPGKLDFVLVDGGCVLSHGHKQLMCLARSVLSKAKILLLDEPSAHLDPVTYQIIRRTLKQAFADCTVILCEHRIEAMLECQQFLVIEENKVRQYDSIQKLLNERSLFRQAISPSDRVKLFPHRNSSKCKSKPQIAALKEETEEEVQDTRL

Compound CC(C)(C)c1cc(C(C)(C)C)c(NC(=O)c2c[nH]c3ccccc3c2=O)cc1O [Iva, ivacaftor] has a ΔCFTR-inh172peak (CFTR [1]; [3]) of −2.1 ± 0.3, a ΔCFTR-inh172plateau (CFTR [1]; [3]) of −2.1 ± 0.3 and a ΔFskpeak (CFTR [1]; [3]) of −0.1 ± 0.3. For the same compound, the ΔFskplateau (CFTR [1]; [3]) was −0.1 ± 0.3, the ΔCFTR-inh172peak (CFTR [1]; [4]) was −1.6 ± 0.1 and the ΔCFTR-inh172plateau (CFTR [1]; [4]) was −1.6 ± 0.1. For the same compound, the ΔFskpeak (CFTR [1]; [4]) was 1.0 ± 0.3, the ΔFskplateau (CFTR [1]; [4]) was 1.0 ± 0.3 and the ΔCFTR-inh172peak (CFTR [2]; [5]) was −3.0 ± 0.2. The ΔCFTR-inh172plateau (CFTR [2]; [5]) was −3.0 ± 0.2, the ΔFskpeak (CFTR [2]; [5]) was −1.9 ± 0.1 and the ΔFskplateau (CFTR [2]; [5]) was −1.9 ± 0.1. The ΔCFTR-inh172peak (CFTR [2]; [6]) was −0.2 ± 0.2, the ΔCFTR-inh172plateau (CFTR [2]; [6]) was −0.2 ± 0.2 and the ΔFskpeak (CFTR [2]; [6]) was −0.7 ± 0.2. For the same compound, the ΔFskplateau (CFTR [2]; [6]) was −0.7 ± 0.2.
